Here are results for seven molecules from PMC10591915 (ACS chemical biology, 2023).

A word on the log P: it is a log measure of how a compound divides between an organic and an aqueous phase. One may read the Ki as the equilibrium dissociation constant of an inhibitor or competing ligand from its target.

The conditions of data set [1]: values as provided by PubChem; ref PubChem; cited from earlier work.
The target in data set [2] is T1, human CRBP1 (Homo sapiens, UniProt P09455).
T1 sequence (P09455 1-135): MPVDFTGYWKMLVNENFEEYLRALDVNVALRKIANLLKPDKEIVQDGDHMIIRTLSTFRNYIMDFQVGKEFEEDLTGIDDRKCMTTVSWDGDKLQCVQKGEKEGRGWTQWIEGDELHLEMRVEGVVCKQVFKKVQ
As to the kind of experiment: fluorescence atROL-replacement assay (Ki determination). The format is binding.

The next data set deals with albino mice. The following applies: cited from earlier work.
Data set [3] deals with T1, human CRBP1. The following applies: abn-CBD reference value; cited from earlier work.

Structures are written as SMILES. Like-named read-outs stand apart in the source and are kept apart here.

As to `COCC1CCN(Cc2nc(C(c3ccccc3)c3ccccc3)no2)CC1` [inhibitor 3, 3-benzhydryl-5-[[4-(methoxymethyl)piperidin-1-yl]methyl]-1,2,4-oxadiazole], the log partition coefficient (log P) in data set [1] is 4.0.

Consider `COc1ccc(S(=O)(=O)N2CCC(O)(CO)CC2)c2c1CCCC2` [inhibitor 4, 4-(hydroxymethyl)-1-[(4-methoxy-5,6,7,8-tetrahydronaphthalen-1-yl)sulfonyl]piperidin-4-ol], for which the “log P” value in data set [1] was 1.4.

For `Cc1ccc(C2(c3noc(CN(C)Cc4cnn(C)c4)n3)CCCC2)cc1` [inhibitor 6, N-methyl-N-[[3-[1-(4-methylphenyl)cyclopentyl]-1,2,4-oxadiazol-5-yl]methyl]-1-(1-methylpyrazol-4-yl)methanamine], in data set [1], the “log P” value was 3.5. The molecule further had a Ki on human CRBP1 [2] of 10.7 ± 4.5 µM.

For the molecule `CCN(CCn1cccn1)Cc1nc(C2(c3ccc(C)cc3)CCCC2)no1` [inhibitor 2, N-ethyl-N-[[3-[1-(4-methylphenyl)cyclopentyl]-1,2,4-oxadiazol-5-yl]methyl]-2-pyrazol-1-ylethanamine], in data set [1], the “log P” value was 4.0. This molecule registered a Ki at human CRBP1 [2] of 7.1 ± 2.7 µM.

Take `CC(c1cccs1)N(C)Cc1nc(C(c2ccccc2)c2ccccc2)no1` (stereo not shown) [inhibitor 5, N-[(3-benzhydryl-1,2,4-oxadiazol-5-yl)methyl]-N-methyl-1-thiophen-2-ylethanamine]: the lipophilicity (log P) in data set [1] is on record as 5.0. This molecule came in with a Ki at human CRBP1 [2] of 10.6 ± 2.5 µM.

Turning to `C=C(C)[C@@H]1CCC(C)=C[C@H]1c1c(O)cc(O)cc1CCCCC` [abn-CBD, 4-[(1R,6R)-3-Methyl-6-prop-1-en-2-ylcyclohex-2-en-1-yl]-5-pentylbenzene-1,3-diol], the “protection against light-induced retinal damage” value with albino mice is on record as “protecting against this condition in albino mice”. On human CRBP1 [3], the Ki is 0.067 µM. In addition, the “log P” value in data set [1] was 6.5.

As for `Cc1ccc(C2(c3noc(CN(C)Cc4cccs4)n3)CCCC2)cc1` [inhibitor 1, N-methyl-N-[[3-[1-(4-methylphenyl)cyclopentyl]-1,2,4-oxadiazol-5-yl]methyl]-1-thiophen-2-ylmethanamine], in data set [1], the “log P” value is on record as 4.9. Besides, the Ki at human CRBP1 [2] amounted to 9 ± 4.1 µM.
